Reference: patent US20170042899A1, “Use of Tetrahydrobiopterine Derivatives in the Treatment and Nutrition of Patients With Amino Acid Metabolic Disorders” (BioMarin Pharmaceutical Inc., priority 2002, published 2017)

Legend:
[1] = system: children with mild phenylketonurea; assay: Long time treatment with tetrahydrobiopterine replacing the phenylalanine poor diet; assay type: in vivo, human; conditions: five children
Experimental: The families with five children aged from 4 to 14 years with mild phenylketonurea consented to a therapeutic test, in which the phenylalanine poor diet was replaced by an oral administration of tetrahydrobiopterine in daily doses between 7.1 and 10.7 mg/kg body weight. The treatment lasted 207±51.3 days (average±SD; length 166-263).

[2] = system: persons with a deficiency in phenylalanine hydroxylase; assay: Combined phenylalanine and tetrahydrobiopterine exposure or stress test (phenylalanine concentration in blood); assay type: in vivo, human; conditions: for patients with a response to tetrahydrobiopterine: blood phenylalanine sank by at least 30% 15 hours after exposure
From the text: In order to research the therapeutic effectiveness of tetrahydrobiopterine, one carries out a combined phenylalanine tetrahydrobiopterine stress test for diagnostic and analyzes the effect in vivo by means of determining the [^13C] phenylalanine oxidation rate and 38 persons with a deficiency in phenylalanine hydroxylase prior to and subsequent to the administration of tetrahydrobiopterine derivatives. The response to tetrahydrobiopterine was associated with certain genotypes, and we localized mutations on the basis of the structural models of the phenylalanine hydroxylase monomer and the therefrom derived protein misfolding. We obtained the written consent of the families of 38 children, which suffered from various subset forms of hyperphenylalaninamie. The classification occurred depending upon the plasma phenylalanine concentration prior to treatment: less than 600 μmol/l, mild hyperphenylalaninamie, n=10, age 15 days through 10 years; 600-1200 μmol/l, mild, n=21, age 8 days through 17 years; greater than 1200 μmol, classical phenylketonurea, n=7, age 1 day through 9 years. A defect in this tetrahydrobiopterine biosynthesis or in the recycling of the tetrahydrobiopterine was ruled out by an analysis of the pterine value in urine and the dihydropteridine-reductase activity in erythrocytes. We examined seven patients during the newborn period and 31 as they were already older. Afflicted siblings (n=5) were likewise included in the study, since it is known that non-genetic factors influence the phenylalanine homeostasis. The uptake of phenylalanine was accomplished in that the patients were allowed to take a meal with 100 mg phenylalanine per kilogram body weight. One hour after the end of the meal the patients took 20 mg tetrahydrobiopterine per kilogram (Schircks Laboratories, Jona, Switzerland). The phenylalanine concentration in blood was determined by an electro spray ionization tandem mass spectroscopy—prior to the uptake of phenylalanine and prior to and subsequent to (at 4, 8 and 15 hours) provocation or exposure to tetrahydrobiopterine. During the test phase the newborns were fed with mothers milk, while the older children received a standardized protein supply (10 mg phenylalanine per kg) between six and eight hours after the exposure to tetrahydrobiopterine. The patients were classified as reacting to tetrahydrobiopterine if the phenylalanine concentration in the blood 15 hours after the exposure to tetrahydrobiopterine sank by at least 30% in comparison to the value prior to the intake of tetrahydrobiopterine.

[3] = system: persons with a deficiency in phenylalanine hydroxylase; assay: In vivo analysis of L-[13C]phenylalanine oxidation (13CO2 breath test); design: species or system human
From the text: In order to research the therapeutic effectiveness of tetrahydrobiopterine, one carries out a combined phenylalanine tetrahydrobiopterine stress test for diagnostic and analyzes the effect in vivo by means of determining the [^13C] phenylalanine oxidation rate and 38 persons with a deficiency in phenylalanine hydroxylase prior to and subsequent to the administration of tetrahydrobiopterine derivatives. The response to tetrahydrobiopterine was associated with certain genotypes, and we localized mutations on the basis of the structural models of the phenylalanine hydroxylase monomer and the therefrom derived protein misfolding.
The tests were carried out after a four hour fast in small children and an overnight fast in older children. Overall 6 mg L-[1^−13C] phenylalanine (Euriostop, Paris, France) per kilogram body weight were taken in orally. The tracer was dissolved in a 25% dextrose solution (2 mg per milliliter). Subsequently breath samples were taken over a period of 180 minutes and stored in air-free glass pipes until analysis by means of isotope mass spectroscopy (deltaS, Thermoquest, Bremen). The recapture of carbon-13 in the breath samples was calculated, as described by Treacy et al, wherein a total carbon dioxide of 300 mmol per hour×[…] of body surface was assumed. The ^13CO2-production was represented as a cumulative percentage rate of the calculated dose against time. The validity of the results in the newborn could have been influenced by the nutrition or the fact that the collection of the breath sample is more difficult with them than with older children. […] In cross section, less than one (older children) and less than two (newborns) of 27 sequential ^13CO2 measurements, which were obtained during the 180 minutes of an individual test, were not capable of interpretation.
Patients with various clinical stages of illness achieved basile cumulative ^13CO2 recapture rates, which respectively reflected their individual rest phenylalanine oxidation capacity (classic phenylketonurea, average value 1.4%; mild phenylketonurea, 3.1%; mild hyperphenylalaninamie, 5.6%; the healthy comparison group 9.0%). […] The rise was more clearly pronounced in patients with a mild phenylketonurea than in patients with a mild hyperphenylalaninamie (FIG. 2A). […] This is associated therewith that with longer therapies, also in the cases of hyperphenylalaninamie derivative, improvement by tetrahydrobiopterine could be achieved.

[4] = Serum residence time; conditions: in vivo
[5] = system: patients with a lack of tetrahydrobiopterine; conditions: more than 350 patients with a lack of tetrahydrobiopterine treated with the co-factor; cited from earlier work
[6] = a patient with classic phenylketonurea

Row | serum residence time [4] | Compound | phenylalanine concentration in blood during the pure cofactor treatment ([1]; diet replaced by tetrahydrobiopterine) | daily phenylalanine tolerance with treatment (range) ([1]; oral 7.1-10.7 mg/kg body weight daily) | daily phenylalanine tolerance with treatment (average±SD) ([1]; oral 7.1-10.7 mg/kg body weight daily, 207±51.3 days) | phenylalanine concentration in the blood after exposure ([2]; 23 of the 27 patients reacting to tetrahydrobiopterine) | patients in whom tetrahydrobiopterine significantly decreased the phenylalanine content in the blood and improved the phenylalanine oxidation ([2]; 27 of the 31 patients with mild hyperphenylalaninamie (n=10) or mild phenylketonurea (n=21)) | phenylalanine concentration in blood, change [2, 6] | patients satisfying the criteria of a strong response to tetrahydrobiopterine ([2]; classical phenylketonurea (n=7)) | patients with a response to tetrahydrobiopterine ([2]; mild hyperphenylalaninamie) | patients with a response to tetrahydrobiopterine ([2]; mild phenylketonurea) | phenylalanine concentration in the blood after exposure ([2]; patients which did not react) | total 13CO2 recapture after treatment ([3]; 10 mg/kg body weight, 24 hours, patients which had responded to the stress test) | persons reacting to tetrahydrobiopterine that achieved oxidation rates in a normal level ([3]; 27 persons reacting to tetrahydrobiopterine) | phenylalanine oxidation rate, change [3, 6] | patients which did not respond exhibiting a mild rise in phenylalanine oxidation ([3]; after short time therapy with tetrahydrobiopterine) | dose dependent undesired side effects [5]
1 | approximately 8 hours | C[C@H](O)[C@H](O)[C@H]1CNc2nc(N)[nH]c(=O)c2N1 [tetrahydrobiopterine, 5,6,7,8-tetrahydrobiopterine] | 378 ± 173 µmol/L | 17.9-90 mg/kg body weight | 61.4±27.9 mg/kg body weight | less than 200 μmol/l | 87% | slight increase | none | all ten | 17 of 21 | exceeded 400 μmol/l | rose significantly | 22 of the 27 | improvement | 8 of 11 | 
2 |  | C[C@H](O)[C@H](O)[C@H]1CNc2[nH]c(N)nc(=O)c2N1.Cl.Cl [BIOPTEN, sapropterinhydrochloride] |  |  |  |  |  |  |  |  |  |  |  |  |  |  | interference with sleep, polyurea and thin stool
